Key:
C3H10T1/2 cells [1] = experiment: Cell proliferation assay (EZ-Cytox, water-soluble tetrazolium salt); assay type: cell-based, mouse; details: 5 μg/mL compared with 1 and 10 μg/ml
Protocol: (§1) C3H10T1/2 cells which are mouse mesenchymal stem cells and MC3T3-E1 cells which are pre-osteoblasts were cultured in Basal Medium Eagle (BME) medium supplemented with 10% fetal bovine serum, 1 mM sodium pyruvate, 100 units/L penicillin and 100 mg/L streptomycin and α-minimal essential medium (α-MEM) at 37° C. under 5% CO2.
(§2) The D3G fraction layer obtained in Examples 1 and 2 was dissolved in sterilized distilled water and divided into three groups of concentrations of 1 μg/ml, 5 μg/ml and 10 μg/ml, and then added them to C3H10T1/2 cells and MC3T3-E1 cells respectively and further cultured for 48 hours. Cells cultured in the absence of the D3G fraction layer were used as a control.
Cell proliferation assays were performed using a EZ-Cytox Enhanced Cell Viability Assay Kit product with water-soluble tetrazolium salt.
Specifically, C3H10T1/2 cells and MC3T3-E1 cells (3×10^3 cells/well) were inoculated into 96-well plates and cultured in growth medium at 37° C. for 24 hours in 5% CO2, and then the Lycium root bark extracts of three concentrations (1 μg/ml, 5 μg/ml and 10 μg/ml) were added to the cells and cultured for 2 days. […]
(§3) Statistical analysis was performed by student's t-test for the control group without extract treatment and for each treatment group with extract treatment, and expressed as *p<0.05 depending on significance level.

MC3T3-E1 cells [2] = experiment: Analysis of mineralization action (alizarin red S staining); assay type: cell-based; details: 5 μg/mL, 3 weeks, vs control
Protocol: (§4) In the case of MC3T3-E1 cells, ascorbic acid (50 μg/ml) and β-Glycerophosphate (10 mM), which are the osteoblast differentiation-inducing agents, were added, and then differentiation was induced for 3 days before treatment with the D3G fraction layer.
The analysis of mineralization action of the cells was performed after incubation of the experimental group treated with 5 μg/ml of the D3G and the control group for 3 weeks. The analysis of mineralization action was performed using the Alizarlin red S staining method.

MC3T3-E1 cells [3] = experiment: Expression level of osteoblast differentiation gene markers (real-time PCR); assay type: cell-based; details: differentiation-induced MC3T3-E1 cells; 5 μg/ml; relative to Gapdh
Protocol: as §4
The change in the expression levels of mRNAs of osteoblast differentiation gene markers, Alp, Runx2, and Bglap (Osteocalcine) among bone remodeling-related gene markers was confirmed by a quantitative reverse transcription-PCR.
After harvesting the cells, total RNA was isolated using Trizol, and in order to remove genomic DNA, DNase I was reacted at room temperature for 15 minutes and then treated with EDTA to inactivate DNase I.
Thereafter, the reverse transcription reaction was induced by using oligo dT primer as a primer to synthesize cDNA, and then real-time PCR was performed using sequence specific primers of each gene and SYBR Green. The analysis of the expression level was performed by using the relative quantification method for the target gene using the Gapdh gene as a control. The gene-specific primer sequence information for identifying the level of expression of the gene markers used to determine the degree of differentiation of osteoblasts and osteoclasts is shown in Table 1 below.
Expression levels of the three gene markers, Alp, Runx2, and Bglap related to bone remodeling for the D3G in differentiation-induced MC3T3-E1 cells were compared by the method as described above, and the results are shown in FIGS. 7a, 7b, and 7c. Statistical analysis was performed by student's t-test and expressed as *p<0.05 depending on significance level.

MC3T3-E1 cells [4] = experiment: Cell proliferation assay (EZ-Cytox, water-soluble tetrazolium salt); assay type: cell-based; details: differentiation induced MC3T3-E1 cells; 5 μg/mL compared with 1 and 10 μg/ml
Protocol: as §1, §4, §2
Cell proliferation assays were performed using a EZ-Cytox Enhanced Cell Viability Assay Kit product with water-soluble tetrazolium salt. […]
as §3

MC3T3-E1 cells [5] = experiment: Analysis of ALP activity; assay type: cell-based
Protocol: as §1
In the case of MC3T3-E1 cells, ascorbic acid (50 μg/ml) and β-Glycerophosphate (10 mM), which are the osteoblast differentiation-inducing agents, were added, and then differentiation was induced for 3 days before treatment with the D3G fraction layer. […]
(§5) After culturing the D3G-treated experimental group treated with the three kinds of concentrations (1 μg/ml, 5 μg/ml, 10 μg/ml) and the control group for 48 hours, ALP activity of cells was measured. ALP activity was measured using a ALP Assay Kit.
(§6) Specifically, after washing the cells with the physiological saline, the cell lysed with cytolytic agent was treated with p-nitrophenyl phosphate which is a substrate of ALP and then cultured at 37° C. for 1 hour. Thereafter, 0.5N NaOH which is a reaction stop solution was added, and then the absorbance was measured at a wavelength of 405 nm.
The effect of the cell ALP activity of the Lycium root bark extract in C3H10T1/2 cells and differentiation induced MC3T3-E1 cells was analyzed by the method as described above, and the results are shown in FIG. 4. […]

[6] = tested on: monocytes isolated from mouse bone marrow; experiment: Osteoclast differentiation (TRAP activity and TRAP staining); assay type: cell-based; details: mouse monocytes with M-CSF and RANKL; 5 μg/ml; treated vs untreated
Protocol: Osteoclasts was isolated from primary monocytes, which are the […] of osteoclasts from the bone marrow of a 6 week old mouse, and cultured them. After confirming that the osteoclasts isolated from mouse stem cells were monocytes isolated from the bone marrow of the mouse through FACS (FIG. 6a) (monocyte positive marker antibody: CD11b), an experiment was performed. Separated mouse monocytes were treated with 30 ng/ml M-CSF and 50 ng/ml LANKL, which are osteoclast differentiation-inducing agents, and differentiation was induced for 3 days before treatment with D3G fraction layer.
Osteoclasts are derived from stem cells and are responsible for bone resorption that destroys aged bone wherein bone remodeling is maintained through the balanced action of osteogenesis by osteoblasts and bone resorption by osteoclasts. To the monocytes extracted and cultured from the stem cells of the femoral region of the mouse, 30 ng/mL M-CSF and 50 ng/mL RANKL were added together and then cultured for 5 days. Thereafter, the activity of TRAP which is an osteoclast differentiation marker was measured.
After washing the cells with physiological saline, TRAP activity was measured by absorbance at a wavelength of 405 nm using an Acid-Phosphatase Kit, and after staining, the osteoclasts were observed through a microscope.

[7] = tested on: mixed culture of MC3T3-E1 pre-osteoblasts and mouse monocytes; experiment: Mixed culture of osteoblast and osteoclast (ALP and TRAP activity); assay type: cell-based; details: MC3T3-E1 plus monocytes mixed culture; 5 μg/mL
Protocol: In order to assess the maintenance of bone remodeling under the condition closer to the in vivo condition through the balanced action between osteogenesis and bone resorption by osteoblasts and osteoclasts, MC3T3-E1(2×10^4 cells/well), which are pre-osteoblasts, and monocytes (4×10^4 cells/well) obtained by extracting stem cells from the femoral region of the mouse and culturing them were mixed and cultured.
To the mixed culture of osteoblasts and osteoclasts, ascorbic acid (50 μg/ml) and β-glycerophosphate (10 mM) which are osteoblast differentiation-inducing agents were added to induce differentiation for 3 days and then treated with D3G fraction layer. After adding the D3G fraction layer (5 μg/mL) to the mixed culture solution, the activity of ALP which is an osteoblast differentiation marker and the activity of TRAP which is an osteoclast differentiation marker were measured. Statistical analysis was performed by student's t-test and expressed as *p<0.05 and **p<0.01 depending on significance level.

C3H10T1/2 cells [8] = experiment: Analysis of ALP activity; assay type: cell-based, mouse
Protocol: as §1, §2, §5
as §6, with “nm. […]” for “nm.”

## CC(=C/C(=O)O)/C=C/[C@]1(O)[C@]2(C)CO[C@@]1(C)C[C@@H](OC1OC(CO)C(O)C(O)C1O)C2 (stereo partly drawn) [D3G, dihydrophaseic acid 3′-O-β-D-glucopyranoside]
C3H10T1/2 cells [1]
  cell proliferation promoting effect at the optimal concentration: highest
MC3T3-E1 cells [2]
  mineralization (alizarin red S staining): increase mineralization
MC3T3-E1 cells [3]
  expression level of Alp mRNA: increased
  expression level of Bglap (Osteocalcin) mRNA: increased
  expression level of Runx2 mRNA: increased
MC3T3-E1 cells [4]
  cell proliferation promoting effect at the optimal concentration: highest
MC3T3-E1 cells [5]; MC3T3-E1 cells, 5 μg/mL compared with 1 and 10 μg/ml
  enhancing effect of cell ALP activity at 5 μg/mL: best effect
MC3T3-E1 cells [5]; differentiation induced MC3T3-E1 cells, 1, 5 and 10 μg/ml, 48 hours, vs control
  ALP activity: increase ALP activity
[6]
  TRAP activity (osteoclast differentiation marker): no significant change
  TRAP staining of differentiated osteoclast: no significant change
[7]
  ALP activity in mixed culture: increase
  TRAP activity in mixed culture: increase
C3H10T1/2 cells [8]; 5 μg/mL compared with 1 and 10 μg/ml
  enhancing effect of cell ALP activity at 5 μg/mL: best effect
C3H10T1/2 cells [8]; 1, 5 and 10 μg/ml, 48 hours, vs control
  ALP activity: increase ALP activity
